Assay results as given in paper PMC10856041, “Chemical Epigenetic Regulation Secondary Metabolites Derived from Aspergillus sydowii DL1045 with Inhibitory Activities for Protein Tyrosine Phosphatases” (Molecules, 2024).
Values after ≈ are worked out from the molar mass of the structure shown.

Tests used:
A-549 cells = system: A-549 cells; set-up: method as in PMID 18505285; conditions: read-out: IC50 cytotoxicity against A-549 cells; cited from earlier work
K. pneumonia = system: K. pneumonia; set-up: method as in PMID 24736857; conditions: cited from earlier work
TCPTP = target: T1, TCPTP (Homo sapiens, UniProt P17706); assay: PTP inhibitory activity (p-NPP degradation), TCPTP; assay type: biochemical; conditions: p-NPP substrate, 37 °C, 30 min, 405 nm; mean ± SD, n = 3
T1 construct: incubated at 37 °C with 2.5 μg domain protein
T1 sequence (P17706 5-275 limits assumed): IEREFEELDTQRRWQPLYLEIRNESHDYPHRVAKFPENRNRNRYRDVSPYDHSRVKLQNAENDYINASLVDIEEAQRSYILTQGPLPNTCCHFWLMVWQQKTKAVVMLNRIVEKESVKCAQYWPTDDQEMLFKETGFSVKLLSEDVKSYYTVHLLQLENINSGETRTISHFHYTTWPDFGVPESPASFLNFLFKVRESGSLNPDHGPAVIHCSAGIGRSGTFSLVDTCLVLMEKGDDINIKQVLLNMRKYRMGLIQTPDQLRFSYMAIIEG
Method: (§1) The diabetes-related PTPs (PTP1B, TCPTP, SHP1 and CD45) inhibitory activity of the tested compounds was measured as previously described. The compounds were dissolved in DMSO and incubated at 37 °C with 2.5 μg domain protein, 20 mM 3-(N-Morpholino) propanesulfonic (MOPS), 9 mM p-nitrophenyl phosphate (p-NPP), 50 mM NaCl and 50 mM DTT, pH 7.2. The reaction was performed in a 96-well plate (DMSO as blank control). The reaction was started by adding the assay buffer (50 mM citrate (pH 6.0), 0.1 M NaCl, 1 mM EDTA, and 1 mM dithiothreitol) with a final volume of 150 μL and incubated at 37 °C for 30 min and 10 M NaOH was added to terminate the reaction. The inhibition of PTPs by tested compounds was assessed by measuring the degradation of p-NPP at a wavelength of 405 nm.

nematode = assay: anti-nematode activity
PTP1B = target: T2, PTP1B (Homo sapiens, UniProt P18031); assay: PTP inhibitory activity (p-NPP degradation), PTP1B; assay type: biochemical; conditions: p-NPP substrate, 37 °C, 30 min, 405 nm; mean ± SD, n = 3
T2 construct: incubated at 37 °C with 2.5 μg domain protein
T2 sequence (P18031 3-277 limits assumed): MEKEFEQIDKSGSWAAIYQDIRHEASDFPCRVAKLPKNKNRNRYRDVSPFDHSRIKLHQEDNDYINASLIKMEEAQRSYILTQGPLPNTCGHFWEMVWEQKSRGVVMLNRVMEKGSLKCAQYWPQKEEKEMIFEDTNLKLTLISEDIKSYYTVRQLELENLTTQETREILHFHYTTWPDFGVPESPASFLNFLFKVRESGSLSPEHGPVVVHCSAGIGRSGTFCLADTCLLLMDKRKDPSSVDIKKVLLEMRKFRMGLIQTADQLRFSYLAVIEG
Method: as §1

SHP1 = target: T3, SHP1 (Homo sapiens, UniProt P29350); assay: PTP inhibitory activity (p-NPP degradation), SHP1; assay type: biochemical; conditions: p-NPP substrate, 37 °C, 30 min, 405 nm; mean ± SD, n = 3
T3 construct: incubated at 37 °C with 2.5 μg domain protein
T3 sequence (P29350 244-515 limits assumed): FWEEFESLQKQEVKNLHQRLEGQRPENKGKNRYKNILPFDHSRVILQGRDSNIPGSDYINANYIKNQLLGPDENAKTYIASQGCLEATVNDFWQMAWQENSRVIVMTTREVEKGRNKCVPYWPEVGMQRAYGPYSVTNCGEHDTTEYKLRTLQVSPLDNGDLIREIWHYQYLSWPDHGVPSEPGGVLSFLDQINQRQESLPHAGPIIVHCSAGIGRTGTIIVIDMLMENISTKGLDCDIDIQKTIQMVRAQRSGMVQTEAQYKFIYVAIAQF
Method: as §1

CD45 = target: T4, CD45 (Homo sapiens, UniProt P08575); assay: PTP inhibitory activity (p-NPP degradation), CD45; assay type: biochemical; conditions: p-NPP substrate, 37 °C, 30 min, 405 nm; mean ± SD, n = 3
T4 sequence (P08575 653-912 limits assumed): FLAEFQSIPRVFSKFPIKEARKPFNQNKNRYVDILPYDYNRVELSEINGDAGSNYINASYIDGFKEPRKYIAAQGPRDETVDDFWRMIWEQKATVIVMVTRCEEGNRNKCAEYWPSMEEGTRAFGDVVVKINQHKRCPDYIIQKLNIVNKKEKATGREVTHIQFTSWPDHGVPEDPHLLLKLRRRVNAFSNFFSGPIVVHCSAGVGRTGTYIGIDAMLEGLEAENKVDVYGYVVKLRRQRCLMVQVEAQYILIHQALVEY
Method: as §1

Staphylococcus aureus = system: Staphylococcus aureus; set-up: method as in PMID 32449250; conditions: cited from earlier work
α-glucosidase = system: α-glucosidase; set-up: method as in PMID 24436963; conditions: cited from earlier work
two weeds = system: two weeds; set-up: method as in PMID 11076561; conditions: cited from earlier work
HDAC = system: HDAC; set-up: method as in PMID 15808449, PMID 31201063; conditions: cited from earlier work
A. sydowii DL1045 = assay: effect of SAHA on growth and fermentation of A. sydowii DL1045; assay type: cell-based, Aspergillus sydowii DL1045
Method: After A. sydowii DL1045 in rice extract culture medium was treated with three different histone deacetylase inhibitors, including suberoylanilide hydroxamic acid (SAHA), […] and nicotinamide, the fermentation status of the fungi was observed. […] The fermentation broth of A. sydowii DL1045 in the control group was dark green, whereas the fermentation broth in the 250 μM SAHA treatment group was golden yellow (Figure 1a,b). In addition, after 10 days, the weight of metabolites was 3.5 times lower in the SAHA group than in the control group (Figure S1, Supplementary Materials). […] This conjecture was confirmed by the results of scanning electron microscopy, and after 10 days of fermentation, the spores detached from the sporangium after maturation in the later stage of fermentation (Figure 1c).
A. sydowii DL1045 was retrieved from deep-sea mud sediment off the coast of Dalian, Liaoning Province, 121.55 °E and 38.88 °N, China. A. sydowii DL1045 was cultivated on potato dextrose agar (PDA) medium, consisting of 200 g/L of potato, 30 g/L of NaCl, 15 g/L of agar, and 20 g/L of dextrose and incubated for three days at 28 °C with 60% humidity. […]

IC50 (TCPTP) [µM]	IC50 (nematode) [µM]	IC50 (PTP1B) [µM]	IC50 (SHP1) [µM]	IC50 (CD45) [µM]	Compound	other results
–	–	–	–	–	14-hydroxyterezine D	IC50 (A-549 cells): 7.31 µM
–	–	–	–	–	COc1ccc2c(c1)NC(=O)[C@@]21C=C2C(=O)N3CCC[C@H]3C(=O)N2[C@H]1C=C(C)C [6-methoxyspirotryprostatin B]	IC50 (A-549 cells): 8.29 µM
–	–	–	–	–	COc1ccc2c(C[C@@H]3NC(=O)[C@@H]4CCCN4C3=O)c(C(=O)C=C(C)C)[nH]c2c1 [18-oxotryprostatin A]	IC50 (A-549 cells): 1.28 µM
–	–	–	–	–	C/C(=C/CCC(C)C)c1ccc(CO)cc1O [(Z)-5-(Hydroxymethyl)-2-(6′) methylhept-2′-en-2′-yl)-phenol, reference compound]	MIC against K. pneumonia (K. pneumonia): 10.7 mM (≈ 2510 µg/mL)
> 20	50	> 20	0.96 ± 0.02	4.03 ± 0.13	Cc1cc(O)cc(Oc2cc(C)cc(O)c2)c1 [Compound A3, diorcinol]	MIC against K. pneumonia (K. pneumonia): 21.7 mM (≈ 5000 µg/mL)
> 20	> 100	9.65 ± 0.73	8.69 ± 0.26	> 20	C/C(=C\CCC(C)C)c1ccc(CO)cc1O [Compound A4, aspergillusene A]	MIC against K. pneumonia (K. pneumonia): 21.4 mM (≈ 5010 µg/mL)
–	–	–	–	–	COC(=O)/C=C/c1cc(OC)c(OC)c(OC)c1 [Compound A6, methyl trimethoxycinnamate]	inhibitory activity against Staphylococcus aureus (Staphylococcus aureus): showed inhibitory activity against Staphylococcus aureus
–	–	–	–	–	COc1ccc([C@H]2N[C@H](CO)[C@@H](O)[C@@H]2O)cc1O [Compound A7, radicamine A]	α-glucosidase inhibitory activity (α-glucosidase): exhibit α-glucosidase inhibitory activity
> 20	> 100	7.6 ± 0.21	6.01 ± 0.18	7.4 ± 0.08	Cc1cc(O)cc(OC(=O)c2c(C)cc(O)cc2O)c1 [Compound A9, lecanorin]	inhibition of radicle growth and germination of two weeds (two weeds): markedly inhibited the radicle growth and germination of the two weeds
> 20	> 100	> 20	2.16 ± 0.23	4.46 ± 0.16	Cc1cc(Oc2cc(O)cc(C)c2C(=O)O)cc(O)c1C(=O)O [Compound A13, diorcinol acid]	–
–	–	–	–	–	COC(=O)CCCCCCC(=O)Nc1ccccc1 [Compound S1, methyl 8-oxo-8-(phenylamino) octanoate]	HDAC inhibitory activity (HDAC): displayed HDAC inhibitory activity
–	–	–	–	–	O=C(O)CCCCCCC(=O)Nc1ccccc1 [Compound S2, suberanilic acid]	HDAC inhibitory activity (HDAC): displayed HDAC inhibitory activity
–	–	–	–	–	O=C(CCCCCCC(=O)Nc1ccccc1)NO [SAHA, suberoylanilide hydroxamic acid]	effect on mycelial growth and spore germination (A. sydowii DL1045; 250 μM SAHA, 10 days, scanning electron microscopy): inhibited mycelial growth and spore germination; weight of metabolites, times lower in SAHA group than in control group (A. sydowii DL1045; after 10 days, ethyl acetate extract (Figure S1)): 3.5 times
